The results in this text go back to patent publication US6534519B1, “Phenanthridine-N-oxides with PDE-IV inhibiting activity” (Altana Pharma AG, priority 1999, dated 2003).

For one series, the system named is PDE4. Nature of the series: Inhibition of PDE4 activity (method of Bauer and Schwabe, microtiter plates). Format: biochemical. The conditions noted are these: inhibitory concentration as −log IC50 (mol/1). The source says:
The activity test can be carried out, for example according to the method of Bauer and Schwabe. For this, the method is adapted to microtiter plates (Naunyn-Schmiedeberg's Arch. Pharmacol. 1980, 311, 193-198). The PDE reaction takes place in the first step here. In a second step, the resulting 5′-nucleotide is cleaved by a 5′-nucloetidase of the snake venom of Crotalus atrox to the uncharged nucleoside. In the third step, the nucleoside is separated from the remaining charged substrate on ion-exchange columns. The columns are eluted directly into minivials, into which 2 ml of scintillator fluid are additionally added for counting, using 2 ml of 30 mM ammonium formate (pH 6.0).
The inhibitory values determined for the compounds according to the invention [inhibitory concentration as −log IC50 (mol/1)] follow from the following Table A, in which the numbers of the compounds correspond to the numbers of the examples.

Molecules are shown by their SMILES.

In turn, `CCn1nnc(-c2ccc(C3=[N+]([O-])C4CCCCC4c4cc(OC)c(OC)cc43)cc2)n1` (single isomer, unassigned; (-)) [Compound 1, (−)-cis-6-[4-(2-Ethyl-2H-tetrazol-5-yl)phenyl]-8,9-dimethoxy-1,2,3,4,4a,10b-hexahydrophen-anthridine-N-5-oxide] displayed a melting point of 143.5 to 146 °C. Also, the “−log IC50” value in the series with PDE4 is reported as 6.29.

In general, melting point refers to the temperature of the solid-liquid transition.
